One compound from patent US10072021B2, “Compound for inhibiting binding between DX2 protein and P14/ARF protein, and pharmaceutical composition for treating or preventing cancer disease containing same as effective ingredient” (PUSAN NATIONAL UNIVERSITY INDUSTRY-UNIVERSITY COOPERATION …, priority 2014, dated 2018) can be followed below.

Assay [1] addresses T1, DX2-p14/ARF binding (His-DX2, GST-p14/ARF) (Homo sapiens, UniProt Q13155).
T1 construct: made in house; host or cells: E. coli BL21(DE3) (stated for the GST fusion)
T1 sequence (Q13155 1-251 isoform Q13155-2): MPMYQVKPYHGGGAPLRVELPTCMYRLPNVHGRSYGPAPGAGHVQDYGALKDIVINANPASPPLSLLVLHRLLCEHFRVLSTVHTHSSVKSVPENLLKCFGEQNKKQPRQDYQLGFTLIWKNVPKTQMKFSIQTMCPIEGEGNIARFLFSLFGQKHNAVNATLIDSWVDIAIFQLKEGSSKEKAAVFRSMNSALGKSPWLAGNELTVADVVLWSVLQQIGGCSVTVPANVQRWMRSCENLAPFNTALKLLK
In words: ELISA-based screening for inhibitors of DX2-p14/ARF binding. Particulars: ELISA values at 450 nm. The procedure: In detail, referring to drawings, the compound according to an embodiment of the present invention which is a specific binding inhibitor of DX2 and p14/ARF was screened by using an ELISA-based screening method of FIG. 1. Based on the screening reaction system, increases in ELISA values with increasing concentrations of p14/ARF were measured. […] Thus, by using the ELISA-based screening method, compounds that are specific binding inhibitors of DX2 and p14/ARF were primarily screened.
That is, 0.5% His-DX2 recombinant proteins were immobilized on a 96-well plate with paraformaldehyde (PFA). After performing drying and cleaning processes, GST-p14/ARF proteins were allowed to react with a random compound (final concentration: 0.1 mM). After 1 hour, the plate was washed using TBS-T, and then, incubated with anti-GST antibodies (1:10,000, 30 minutes) and anti-mouse-IgG-HRP (1:50,000, 1 hour). After performing a washing process twice, the plate was incubated with 3,3′,5,5′-tetramethylbenzidine (TMB) solution (Calbiochem) and stop solution (1N H2SO4) for a reaction. Afterwards, by using an ELISA reader, values were measured at 450 nm, thereby selecting candidate drugs as DX2-p14/ARF binding inhibitors. […]
In general terms: In an ELISA, binding on a coated surface is turned into a signal by an enzyme label.

In a further assay the target is T2, DX2-p14/ARF binding (Homo sapiens, UniProt Q13155).
T2 construct: made in house; host or cells: E. coli BL21(DE3) for GST-p14/ARF; DX2 from 'cell lysate or recombinant protein'
T2 sequence (Q13155 1-251 isoform Q13155-2): T1 sequence (Q13155 1-251 isoform Q13155-2)
Kind of assay: GST pull-down assay of DX2-p14/ARF binding. Particulars: FIG. 2A, 3A, 3D, 3E. The source says: Through GST pull-down assays, more specific binding inhibitors were selected among the previously screened candidate drugs as DX2-p14/ARF binding inhibitors. That is, a p14/ARF fragment (full-length) was ligated into EcoRI and Hind II sites of pGEX-TEV vector, which is a modified vector by adding a TEV protease cleavage site to pGEX-4T1. The recombinant proteins were then expressed in E. coli strain BL21(DE3) as GST-fusion proteins. The proteins were purified by glutathione affinity chromatography.
To address direct binding between the two proteins, agarose-bead conjugated GST (negative control) or GST-target protein was incubated with cell lysate or recombinant protein in radioimmunoprecipitation assay (RIPA) buffer (NaCl, 25 mM Tris-Cl, 1% NP-40, 1% sodium deoxycholate, 0.1% SDS, protease inhibitor mixture) for 1 hour at a temperature of 4° C. for a reaction.

Assay [2] has as its system DX2 and DK MEFs; primary tumor cells from DX2 and DK mice. Kind of assay: Reduction of anticancer drug resistance in DX2 and DK MEFs or primary tumor cells (MTT). It counts as cell-based, mouse. The procedure:
(§1) By MTT assay, anticancer effects were confirmed based on viability of tumor cells. That is, cells were incubated in 0.5 mg/ml of MTT solution for 4 hours at a temperature of 37° C. for a reaction, and then, formazen products formed therefrom were dissolved in dimethyl sulfoxide (DMSO). Then, absorbance thereof was measured at 540 nm by using a spectrometer.

The next assay has as its system p53. In words: p53 induction in primary tumor cells (western blotting). It counts as cell-based. Particulars: combinational treatment with Adriamycin and SLCB050, primary tumor cells from DX2 or DK mouse, FIG. 9C. The procedure: To carry out western blot analysis, proteins were thermally inactivated in RIPA buffer (heat treatment for 7 minutes at a temperature of 95° C.), and then, the resulting proteins were applied to SDS-PAGE, followed by western blot analysis according to a known method in the art (J. Clin. Oncol. 16, 1207-1217, 1998; Nat. Rev. Cancer 2, 489-501, 2002). Antibodies used herein, e.g., HA (sc-7392), His (sc-8036), GFP (sc-9996), GST (sc-138), Actin (se-1616), and p19/ARF (sc-32748), were purchased from Santa Cruz Biochnology, anti-p14/ARF (MAB3782) was purchased from Millipore, and FLAG-M2 and anti-C-Myc (M5546) were purchased from Sigma Aldrich. In addition, anti-AIMP2 was provided from Professor. Kim, Sung-Hoon (Seoul Nat. Univ.).
A general note: Immunoblotting shows a protein as a band on a membrane.

Assay [3] has as its system H128 cells (SCLC cell line). Kind of assay: MTT viability of H128 cells. Particulars: MTT assay, FIG. 7. It counts as cell-based, human. How it is done: as §1
A general note: Formazan colour is commonly taken as a measure of viable cells.

The subject of another assay is DX2 and p14/ARF. Kind of assay: Localization and levels of DX2 and p14/ARF in cells after treatment (western blot). The format is cell-based, human.
Assay [4] deals with human lung cancer cell lines. Kind of assay: MTT viability of various human lung cancer cell lines. It counts as cell-based. To be noted: 24 hours, MTT assay, FIG. 5. How it is done: as §1

Structures are written as SMILES. “Also recorded” adds a separate entry of the source.

As to `CC1(C)Oc2cc3oc(=O)ccc3cc2C[C@@H]1OC(=O)/C=C/c1ccco1` [SLCB050, (7S)-(+)-3-(2-Furanyl)-acrylic acid, 8,8-dimethyl-2-oxo-6,7-dihydro-2H,8H-pyrano[3,2-g]chromen-7-yl-ester], the “ELISA reaction of DX2-p14/ARF binding” value in assay [1] is given as “considerably reduced”. In addition, the “inhibitory effect on DX2-p14/ARF binding” value on DX2-p14/ARF binding was “completely blocked; also recorded: showed inhibitory effects on DX2-p14/ARF binding”. Also, the “resistance to Adriamycin in primary tumor cells from DX2 and DK mice” value in assay [2] (Adriamycin 0.2 μg/ml with SLCB050 10 μM, 24 hours, FIG. 8B) was “resistance to Adriamycin was also abolished”. For the same compound, the “resistance to GN25 in DX2 and DK MEFs” value in assay [2] (GN25 5 μM with SLCB050 10 or 20 μM, 6 hours, FIG. 8A) was “resistance to GN25 in DX2 and DK cells was abolished”. In addition, in the assay with p53, the “p53 induction in primary tumor cells” value was “induced p53 synergistically”. Further, the “viability of H128 cells” value in assay [3] is reported as “reduced the viability of H128 cells in a dose-dependent manner”. The “localization of DX2 and p14/ARF” value in the assay with DX2 and p14/ARF (10 μM, 6 hours, nucleoplasm, FIG. 4B) was “DX2 was decreased and p14/ARF was increased in the nucleoplasm”. In the assay on DX2 and p14/ARF (NSCLC cell line H1299 and SCLC cell line H69, FIG. 4C), the “DX2 and p14/ARF levels” value is “decreases DX2, but increases p14/ARF”. For the same compound, the “DX2 levels in p14/ARF-deficient cells” value with DX2 and p14/ARF (p14/ARF-deficient H322 cells (H322, H460, A549), FIG. 4D) was “reduction of DX2; also recorded: DX2 levels decreased considerably”. For the same compound, in assay [4], the “viability of SCLC cells” value is reported as “very sensitive” and the “viability of p14/ARF-deficient cell lines” value is listed as “resistant”.
